{"source": "patent US20060173632A1", "about": "“Method for predicting effectiveness of chemotherapy” (SYSMEX CORPORATION, priority 2005, published 2006)", "assay_type_in_all_cases": "in vivo", "set-up_in_all_cases": "key: Type I mouse is a mouse confirmed to highly sensitive to the anticancer agent. By administering paclitaxel into this type of mouse, the tumor almost disappeared; Type II mouse is a mouse whose sensitivity to the anticancer agent was confirmed to be moderate. By administering paclitaxel into this type of mouse, the increase in tumor size is suppressed; Type III mouse is a mouse confirmed to be poor in sensitivity to the anticancer agent. Even if paclitaxel is administered into this type of mouse, the tumor size continues increasing", "key": {"[1]": {"tested_on": "human-derived breast cancer cultured cells (cell A)", "experiment": "Paclitaxel effect on tumor size in mice grafted with breast cancer cells A", "conditions": "Cell A graft; paclitaxel 20 mg/kg/day once a day for 5 day; change in tumor size to day 11; one line per mouse", "experimental": "(§1) Five kinds of human-derived breast cancer cultured cells (cells A to E) were transplanted subcutaneously into the back of mice, and the mice were maintained for 21 to 28 days to graft the breast tumor cells thereon. 50 mice (Nos. 1 to 50 (Table 2)) on which the breast tumor cells had been grafted were thus created. From the back of each of these mice, a 2.5 mm×2.5 mm tissue section (about 50 mg) was cut off, and a lysis buffer (containing 0.1 w/v % Nonidet P-40 (NP-40) (manufactured by Calbiochem), 50 mM Tris-HCl (pH 7.4), 5 mM EDTA, 50 mM sodium fluoride, 1 mM sodium orthovanadate and 100 μl/ml protease cocktail (Sigma)) was added to this tissue section. The tissue section in the lysis buffer was homogenized with an electric homogenizer.\n(§2) 20 mg/kg (mouse weight)/day of paclitaxel was administered once a day into each of mice Nos. 1 to 50 for 5 day. The tumor size from the initiation of administration to day 11 was measured. Depending on change in tumor size, mice Nos. 1 to 50 were classified into types I, II and III. Type I mouse is a mouse confirmed to highly sensitive to the anticancer agent. By administering paclitaxel into this type of mouse, the tumor almost disappeared. Type II mouse is a mouse whose sensitivity to the anticancer agent was confirmed to be moderate. By administering paclitaxel into this type of mouse, the increase in tumor size is suppressed. […]"}, "[2]": {"tested_on": "human-derived breast cancer cultured cells (cell B)", "experiment": "Paclitaxel effect on tumor size in mice grafted with breast cancer cells B", "conditions": "Cell B graft; paclitaxel 20 mg/kg/day once a day for 5 day; change in tumor size to day 11; one line per mouse", "experimental": "as §1, §2"}, "[3]": {"tested_on": "human-derived breast cancer cultured cells (cell C)", "experiment": "Paclitaxel effect on tumor size in mice grafted with breast cancer cells C", "conditions": "Cell C graft; paclitaxel 20 mg/kg/day once a day for 5 day; change in tumor size to day 11; one line per mouse", "experimental": "as §1, §2"}, "[4]": {"tested_on": "human-derived breast cancer cultured cells (cell D)", "experiment": "Paclitaxel effect on tumor size in mice grafted with breast cancer cells D", "conditions": "Cell D graft; paclitaxel 20 mg/kg/day once a day for 5 day; change in tumor size to day 11; one line per mouse", "experimental": "as §1, §2"}, "[5]": {"tested_on": "human-derived breast cancer cultured cells (cell E)", "experiment": "Paclitaxel effect on tumor size in mice grafted with breast cancer cells E", "conditions": "Cell E graft; paclitaxel 20 mg/kg/day once a day for 5 day; change in tumor size to day 11; one line per mouse", "experimental": "as §1, §2"}}, "data": [{"smiles": "CC(=O)O[C@H]1C(=O)[C@@]2(C)[C@H]([C@H](OC(=O)c3ccccc3)[C@]3(O)C[C@H](OC(=O)[C@H](O)[C@@H](NC(=O)c4ccccc4)c4ccccc4)C(C)=C1C3(C)C)[C@]1(OC(C)=O)CO[C@@H]1C[C@@H]2O", "note": "[paclitaxel]", "values": [{"measurement": "result of (4)", "setting": "[1]", "result": "Type I"}, {"measurement": "result of (4)", "setting": "[2]", "result": "Type II"}, {"measurement": "result of (4)", "setting": "[3]", "result": "Type II"}, {"measurement": "result of (4)", "setting": "[4]", "result": "Type III"}, {"measurement": "result of (4)", "setting": "[5]", "result": "Type III"}]}]}
